Reference: patent US7723576B2, “Method of selectively producing male or female sterile plants” (Syngenta Limited, priority 2003, dated 2010)

Experiments:
[1] = system: conditionally male sterile tobacco plants; assay: Foliar spray on conditionally male sterile transgenic tobacco (TA29-deacetylase plus plastocyanin-PAT); format: in vivo
Experimental: Tobacco plant material is transformed, via Agrobacterium, with vector and transgenic plants are regenerated in a similar manner to that described in the previous example. The plants produced are self-fertile but are conditionally male sterile. Seeds of the T1 generation are planted out into soil. Once plantlets have grown to a sufficient size they are tested by PCR for the presence of transgene. PCR positive plants are transferred to the greenhouse. These plants are fully fertile in the absence of exogenously applied herbicide. A subset of these putatively conditionally sterile T1 plants, or, alternatively plantlets of T0 ‘events’ (direct regenerants from transformation) are treated with phosphinothricin in various amounts and at varying growth stages. Where To plants are treated they are vegetatively cloned so that untreated siblings of the events are set aside for seed production. […] For example, phosphinothricin is applied as a foliar spray, prior to or during the early stages of flower formation, at rates usually between 0.25 and 20 kg/ha.
Pollen from the treated plants is collected and viability is tested. […] Pollen collected from some of the treated plants is tested and found to be malformed and non-viable. […]

[2] = system: conditionally female sterile tobacco plants; assay: Foliar spray on conditionally female sterile transgenic tobacco (stig1-deacetylase plus plastocyanin-PAT); format: in vivo, Nicotiana tabacum var. Samsun
Experimental: Tobacco leaf discs are transformed with the recombinant binary vectors using methods similar to those described in Horsch et al (1985) Science, 227, 1229-1231. Many variations of the method may be used. The binary vector can be transformed into, for example, Agrobacterium tumefaciens strain LBA 4404 using the freeze thaw method of transformation. Tobacco transformation and whole plant regeneration is performed using Nicotiana tabacum var. Samsun according to protocols described by Draper et al (Plant Genetic Transformation, Blackwell Sci. Pub. 1989). Transformation events are selected on MS-media containing kanamycin or other suitable antibiotic. Alternatively selection is made on phosphinothricin. The presence of integrated transgenes is confirmed by PCR. Plants are regenerated and allowed to reach maturity and selfed on to produce seed. Northern and/or Western analysis is used to confirm tissue-specific expression of the deacetylase. The plants are self-fertile but have the condition of conditional female sterility. Seeds of the T1 generation are planted out. Once plantlets have grown to a sufficient size they are tested by PCR for the presence of transgene. PCR positive plants are transferred to the greenhouse. These plants are fully fertile in the absence of exogenously applied phosphinothricin. A subset of these (putatively) conditionally sterile plants are treated with DL-phosphiothricin or L phosphinothricin in various amounts and at varying growth stages. Such treatments are carried out on the T1 plants confirmed as PCR positive for the deacetylase gene, or, equally, such treatments are carried out directly on plants of the To generation (which are vegetatively cloned so that untreated clones of each event may be set aside for seed production). […] For example, phosphinotricin is applied as a foliar spray, prior to or during the early stages of flower formation, at rates usually between 0.25 and 20 kg/ha. Undamaged appearing plants are selected and pollen from the treated plants is collected and viability is tested. […]

[3] = system: wheat plants with PAT gene under plastocyanin promoter region; assay: Application to wheat plants expressing PAT under a plastocyanin promoter region; format: in vivo; conditions: rates of at least 2 kg/ha
Source text: Firstly, the PAT gene is expressed under operable control of a plastocyanin promoter region so that it is expressed substantially only in the green tissues of the plant. […] Thus a critical feature of the constructs described in the foregoing examples which are used to provide the plants of the current example is that the PAT gene which provides the resistance trait is expressed under operable control of a promoter region which provides for expression in substantially only the green tissues. A characteristic of such a useful promoter region is that it should express PAT in such a way that it protects adequately all the […] floral tissues from foliarly applied DL phosphinothricin whilst, at the same time, providing only a minimal level of PAT expression in the floral tissue itself and especially low in those parts targeted for conditional sterility. With PAT expressed under operable control of the barley plastocyanin promoter region this condition appears to be met since substantially all of the L-phosphinothricin which is sprayed enters via the leaves is intercepted and converted to non-phytotoxic N-acetyl-L-phosphinothricin before it translocated to developing floral tissues. […]

[4] = system: transgenic plants comprising a PAT gene under operable control of the plastocyanin promoter region; assay: Foliar spray on control transgenic tobacco with PAT gene under plastocyanin promoter, no deacetylase gene; format: in vivo, Nicotiana tabacum var. Samsun; conditions: rates in excess of 2 kg/ha; no deacetylase co-expressed

| Compound | pollen shed and viability after treatment ([1]; foliar spray prior to or during early flower formation, rates usually between 0.25 and 20 kg/ha) | female fertility of treated male infertile plants ([1]; pollinated with pollen from untreated non-transgenic or conditionally female-sterile tobacco) | seed production after treatment ([2]; foliar spray prior to or during early flower formation, selected lines) | vegetative damage (appearance of treated plants) ([2]; foliar spray prior to or during early flower formation, treatment rates of up to 5 kg/ha) | viable pollen production after treatment ([2]; same treatment conditions as for seed production) | reproductive tolerance to the herbicide [3] | reproductive tolerance to the herbicide [4] |
| --- | --- | --- | --- | --- | --- | --- | --- |
| CP(=O)(O)CC[C@H](N)C(=O)O (racemic) [phosphinothricin] | no or relatively little pollen and/or pollen which is not viable | remain female fertile | relatively little or no seed | relatively undamaged | near normal levels of viable pollen | – | – |
| CP(=O)(O)CCC(N)C(=O)O (stereo not drawn) [DL PPT, DL phosphinothricin] | – | – | – | – | – | substantially reproductively tolerant | substantially complete reproductive tolerance |
